Experimental findings from patent US20250188030A1, “Biphenyl and Phenylpyridine Compounds” (Pfizer Inc., priority 2023, published 2025) are described below.

Like-named read-outs stand apart in the source and are kept apart here. Where only a bound is given, the exact number is not on record here.

Assay [1] concerns H3K9AC (HT1080 cells). Kind of assay: H3K9AC Sandwich ELISA Assay in HT1080 cells (KAT2A primary cell-based screening assay). On the set-up: species or system Human. How it is done: Human fibrosarcoma cell line HT1080 was obtained from American Type Culture Collection (ATCC), Manassas, VA USA, Cat. HT-1080 (ATCC® CCL-121™). Cells were cultured in MEM (Thermo Fisher Scientific/Gibco Life Technologies Cat. #11-095-080) plus 10% (v/v) FBS (Thermo Fisher Scientific/Gibco Life Technologies Cat. #26140-079) and 1% Penicillin-Streptomycin (Thermo Fisher Scientific/Gibco Life Technologies Cat. #15070063) at 37° C. in 5% CO2.
HT1080 cells were trypsinized, cell viability count performed, and cells suspended in complete media at 100,000 cells/ml. Cells were seeded (100 μl/well) into Greiner Bio-One CELLSTAR 96-well polystyrene flat bottom cell culture microplate (Thermo Fisher Scientific Cat. #07-000-162) at a density of 10,000 cells/well. Cells were incubated for 16 hours at 37° C. at 5% CO2. Compound dilution plates were prepared in 96-well, clear U-bottom, polypropylene plates (Corning 3365) in 100% DMSO at 10 mM stock concentration in duplicate, using 10-point serial dilution (1:3). Compounds were diluted to 1:200 in growth medium and 25 μl from intermediate compound plates were added to each well of the cell plates using a Beckman FX liquid handling system such that the highest compound concentration tested was 10 μM final, with a 0.1% final DMSO concentration in the total volume of 125 μl. Plates were incubated for 24 hours at 37° C. and 5% CO2. Plates were centrifuged at 2500 rpm for 5 minutes and medium was removed. 100 μL 0.4N HCL (Thermo Fisher Scientific Cat #SA56-1) was added to each well and plates were shaken for 60 minutes at 4C to lyse cells. 38ul 0.4N Sodium phosphase dibasic pH12.5 (Thermo Fisher Scientific Cat #S375-212) containing 2 mM Sodium Butyrate (Millipore TR1008G) and 3 mM Phenylmethanesulfonyl-fluoride (Sigma 93482) was added to each well to neutralize lysates.
Cell lysate plates were mixed for 5 minutes at room temperature on shaker and immediately frozen at −80C overnight. Cell lysates were thawed and 50 μL/well was transferred to ELISA plates (Total Histone H3 mouse (Cell Signaling Technology Cat #14269) mAb-coated Corning 1×8 strip-well, white, 96-well plates (Corning 2485)). After 2 hours room temperature incubation, plates were washed six times with PBS/0.05% Tween Wash Buffer using a BioTek plate washer. 50 μL of Histone H3K9AC rabbit detection mAb (Cell Signaling Technology Cat #9649S) diluted 1:1000 in blocking buffer (Thermo Fisher Scientific Cat #37542) was added to each well and incubated for 2 hours at room temperature. After washing, 50 μL anti-rabbit IgG, HRP-Linked antibody (Cell Signaling Technology Cat #7074) diluted 1:1000 in blocking buffer was added to each well and incubated for 60 minutes at room temperature. Following incubation, plates were washed as described above. 50 μL of luminescent GLO substrate reagent (R&D System Cat #DY993) was added to each well and incubated for 10 minutes at room temperature. Plates were read on the PHERAstar plate reader using the 96-well with Luminescent reading mode. IC50 values were calculated using a four-parameter fit with GraphPad Prism version 9.5.1 or in-house modified IDBS ActivityBase data analyzing package.
(In general: In an ELISA, binding on a coated surface is turned into a signal by an enzyme label.)

Assay [2] addresses KAT2A (Homo sapiens (Human), UniProt Q92830). Kind of assay: KAT2A acetyltransferase biochemical assay (RapidFire mass spectrometry, AcCoA to CoA).
Where [3] appears, read: Homo sapiens, HT-1080, H3K9AC sandwich ELISA.
Setting [4] is: read-out: KAT2A Ki at 1 μM AcCoA, 5 μM H3 1-21 peptide, 0.5 nM KAT2A, 90-minute reaction.

Sequence of KAT2A (Q92830 whole entry): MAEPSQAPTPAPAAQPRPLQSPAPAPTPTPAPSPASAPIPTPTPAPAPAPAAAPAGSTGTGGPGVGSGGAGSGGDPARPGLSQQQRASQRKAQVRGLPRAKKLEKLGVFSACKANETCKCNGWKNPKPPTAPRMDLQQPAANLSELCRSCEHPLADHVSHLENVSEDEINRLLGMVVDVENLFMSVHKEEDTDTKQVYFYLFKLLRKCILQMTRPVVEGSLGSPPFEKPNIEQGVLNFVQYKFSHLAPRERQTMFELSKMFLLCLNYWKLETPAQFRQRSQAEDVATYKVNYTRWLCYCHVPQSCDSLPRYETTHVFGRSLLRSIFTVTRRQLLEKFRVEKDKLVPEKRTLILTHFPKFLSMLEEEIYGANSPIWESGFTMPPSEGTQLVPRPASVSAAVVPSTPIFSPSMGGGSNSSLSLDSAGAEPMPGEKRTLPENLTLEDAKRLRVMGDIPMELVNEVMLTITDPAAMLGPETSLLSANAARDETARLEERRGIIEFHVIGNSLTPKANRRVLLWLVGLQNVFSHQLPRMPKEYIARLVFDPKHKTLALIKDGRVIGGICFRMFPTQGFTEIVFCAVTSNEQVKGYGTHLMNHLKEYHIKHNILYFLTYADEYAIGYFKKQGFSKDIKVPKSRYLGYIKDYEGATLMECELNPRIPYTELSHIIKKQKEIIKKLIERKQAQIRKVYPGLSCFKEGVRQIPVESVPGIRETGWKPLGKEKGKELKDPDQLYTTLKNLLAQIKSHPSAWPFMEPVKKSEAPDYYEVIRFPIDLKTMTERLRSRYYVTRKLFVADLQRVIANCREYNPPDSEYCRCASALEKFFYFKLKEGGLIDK

Regarding `C[C@@H](C(=O)O)c1nn(C)cc1-c1ccc(O[C@@H]2CC[C@@H](NC(=O)[C@]3(F)CNC4(CCC4)C3)C2)c(-c2cccc(F)c2C2CCC2)c1` (single isomer, unassigned) [Example J2], the midpoint of inhibition in assay [1] (H3K9AC sandwich ELISA), the IC50, lay at 790 nM. Further, the affinity in assay [2] (KAT2A Ki at 1 μM AcCoA, 5 μM H3 1-21 peptide, 0.5 nM KAT2A, 90-minute reaction) corresponds to a Ki of 61.6 nM.

On to `CC1(C)C[C@@](F)(C(=O)N[C@@H]2CC[C@@H](Oc3ccc(C(C)(C)C(=O)O)cc3-c3cccc(F)c3C3CCC3)C2)CN1` (single isomer, unassigned) [Example A3], for which the IC50 (commonly the concentration that inhibits the measured activity by half) in assay [1] (setting [3]) was over 10000 nM. Moreover, the inhibition constant (Ki) (in general, the dissociation constant of the complex between target and ligand, obtained from inhibition or displacement) in assay [2] (setting [4]) is 1440 nM.

In turn, `Cn1cc(-c2ccc(O[C@@H]3CC[C@@H](NC(=O)[C@]4(F)CNC5(CCC5)C4)C3)c(-c3cccc(F)c3C3CCC3)c2)c(C(C)(C)C(=O)O)n1` (single isomer, unassigned) [Example J6] gave an IC50 in assay [1] (H3K9AC sandwich ELISA) of 746 nM. The Ki in assay [2] (setting [4]) was over 1000 nM.

`CCc1c(F)cccc1-c1cc(C(C)(C)C(=O)NS(=O)(=O)C2(C)CC2)ccc1O[C@@H]1CC[C@@H](NC(=O)[C@@]2(F)CNC3(CCC3)C2)C1` [Example C23, (7S)-N-[(1R,3R)-3-({2′-ethyl-3′-fluoro-5-[2-methyl-1-(1-methylcyclopropane-1-sulfonamido)-1-oxopropan-2-yl][1,1′-biphenyl]-2-yl}oxy)cyclopentyl]-7-fluoro-5-azaspiro[3.4]octane-7-carboxamide] had a concentration for half-maximal inhibition (IC50) in assay [1] (setting [3]) of 91.8 nM. Also, the Ki in assay [2] (setting [4]) was determined as 6.57 nM.

`CCS(=O)(=O)NC(=O)Cc1ccc(O[C@@H]2CC[C@@H](NC(=O)[C@@]3(F)CNC4(CCC4)C3)C2)c(-c2ccccc2C(C)C)c1` [Example C53, (7S)-N-[(1R,3R)-3-({5-[2-(ethanesulfonamido)-2-oxoethyl]-2′-(propan-2-yl)[1,1′-biphenyl]-2-yl}oxy)cyclopentyl]-7-fluoro-5-azaspiro[3.4]octane-7-carboxamide]: the half-inhibitory concentration (IC50) in assay [1] (setting [3]) came to 7 nM. The inhibitory constant (Ki) in assay [2] (setting [4]) is 0.1 nM.

As for `CCc1c(F)cccc1-c1cc([C@@H](C)C(=O)NS(=O)(=O)C2(C)CC2)ccc1O[C@@H]1CC[C@@H](NC(=O)[C@@]2(F)CNC3(CCCC3)C2)C1` (single isomer, unassigned) [Example C85], the IC50 in assay [1] (H3K9AC sandwich ELISA) was 6.1 nM. Besides, the Ki in assay [2] (setting [4]) is 0.17 nM.

In the case of `CN1CC(C)(C)C[C@H]1C(=O)N[C@H]1C[C@H](Oc2cccc(CC(=O)O)c2-c2cccc(F)c2C2CCC2)C[C@H]1O` (atropisomer, axis not shown) [Example K5, [(1ψ)-2′-cyclobutyl-3′-fluoro-6-({(1S,3R,4S)-3-hydroxy-4-[(1,4,4-trimethyl-L-prolyl)amino]cyclopentyl}oxy)[1,1′-biphenyl]-2-yl]acetic acid], in assay [1] (H3K9AC sandwich ELISA), the concentration for half-maximal inhibition (IC50) is 489 nM. Also, the Ki in assay [2] (setting [4]) was 75.7 nM.

In assay [1] (H3K9AC sandwich ELISA), `O=C(O)c1nn(C2CC2)cc1-c1ccc(O[C@@H]2CC[C@@H](NC(=O)[C@@]3(F)CNC4(CCC4)C3)C2)c(-c2cccc(F)c2C2CCC2)c1` (single isomer, unassigned) [Example J11] yielded a concentration for half-maximal inhibition (IC50) of 8.85 nM. Also, the inhibitory constant (Ki) in assay [2] (setting [4]) came to 0.08 nM.

The molecule `O=C(O)c1ccc(O[C@@H]2CC[C@@H](NC(=O)[C@@]3(F)CNCC4(CCC4)C3)C2)c(-c2cccc(F)c2C2CCC2)c1` (single isomer, unassigned) [Example A33] registered an IC50 in assay [1] (H3K9AC sandwich ELISA) of over 1000 nM. Moreover, the Ki in assay [2] (setting [4]) is over 99.9 nM.

Molecule `CC1(C)CNC[C@](F)(C(=O)N[C@@H]2CC[C@@H](Oc3ccc(CC(=O)NS(=O)(=O)C4(C)CC4)cc3-c3cccc(F)c3C3CCC3)C2)C1` (single isomer, unassigned) [Example C79] came in with an IC50 in assay [1] (H3K9AC sandwich ELISA) of 3.6 nM. The Ki in assay [2] (setting [4]) turned out to be 0.06 nM.

As to `CC(C)S(=O)(=O)NC(=O)Cc1ccc(O[C@@H]2CC[C@@H](NC(=O)[C@@]3(F)CNCC(C)(C)C3)C2)c(-c2cccc(F)c2C2CCC2)c1` (single isomer, unassigned) [Example C77], the IC50 in assay [1] (H3K9AC sandwich ELISA) turned out to be 6 nM. In assay [2] (setting [4]), the inhibitory constant (Ki) is 0.05 nM.

In turn, `CC(C)c1ccccc1-c1cc(CC(=O)NS(=O)(=O)C2(C)CC2)ccc1O[C@@H]1CC[C@@H](NC(=O)[C@@]2(F)CNCC(C)(C)C2)C1` (single isomer, unassigned) [Example C81] had a concentration for half-maximal inhibition (IC50) in assay [1] (H3K9AC sandwich ELISA) of 135 nM. Also, the inhibition constant Ki in assay [2] (setting [4]) came out at 31.1 nM.

In the case of `CC[C@](C)(C(=O)O)c1ccc(O[C@@H]2CC[C@@H](NC(=O)[C@]3(F)CNC4(CCC4)C3)C2)c(-c2cccc(F)c2C2CCC2)c1` (single isomer, unassigned) [Example A11], the IC50 in assay [1] (H3K9AC sandwich ELISA) was over 1000 nM. Moreover, the Ki in assay [2] (setting [4]) is over 1000 nM.

`CCc1c(F)cccc1-c1cc([C@@H](C)C(=O)NS(=O)(=O)C2(C)CC2)ccc1O[C@@H]1CC[C@@H](NC(=O)[C@@]2(F)CNC3(CCC3)C2)C1` (single isomer, unassigned) [Example C83] showed a 50% inhibitory concentration (IC50) in assay [1] (H3K9AC sandwich ELISA) of 2.4 nM. For the same molecule, the inhibition constant Ki in assay [2] (setting [4]) turned out to be 0.08 nM.

In turn, `CC(C)c1c(F)cccc1-c1cc(C(=O)O)ccc1O[C@@H]1CC[C@@H](NC(=O)[C@@H]2CC(C)(C)CN2C)C1` [Example D7, 3′-fluoro-2′-(propan-2-yl)-6-({(1R,3R)-3-[(1,4,4-trimethyl-L-prolyl)amino]cyclopentyl}oxy)[1,1′-biphenyl]-3-carboxylic acid] yielded an IC50 in assay [1] (setting [3]) of 45.1 nM. The Ki in assay [2] (setting [4]) turned out to be 3.57 nM.

For `CC(C)(C(N)=O)c1ccc(O[C@@H]2CC[C@@H](NC(=O)[C@]3(F)CNC4(CCC4)C3)C2)c(-c2cccc(F)c2C2CCC2)c1` (single isomer, unassigned) [Example C15], the concentration for half-maximal inhibition (IC50) in assay [1] (setting [3]) was over 1000 nM. Moreover, in assay [2] (setting [4]), the inhibition constant (Ki) is 1270 nM.

In assay [1] (setting [3]), `CN1CC(C)(C)C[C@H]1C(=O)N[C@@H]1CC[C@@H](Oc2ccc(-c3nn(C)cc3CC(=O)O)cc2-c2cccc(F)c2C2CCC2)C1` [Example J8, {3-[2′-cyclobutyl-3′-fluoro-6-({(1R,3R)-3-[(1,4,4-trimethyl-L-prolyl)amino]cyclopentyl}oxy)[1,1′-biphenyl]-3-yl]-1-methyl-1H-pyrazol-4-yl}acetic acid] yielded an IC50 of 2.71 nM. In assay [2] (setting [4]), the Ki was determined as 0.74 nM.

In assay [1] (H3K9AC sandwich ELISA), `CN1CC(C)(C)C[C@H]1C(=O)N[C@H]1C[C@H](Oc2cccc(CC(=O)O)c2-c2cccc(F)c2C2CCC2)C[C@H]1O` (atropisomer, axis not shown) [Example K6, [(1ψ)-2′-cyclobutyl-3′-fluoro-6-({(1S,3R,4S)-3-hydroxy-4-[(1,4,4-trimethyl-L-prolyl)amino]cyclopentyl}oxy)[1,1′-biphenyl]-2-yl]acetic acid] displayed an IC50 of 5.73 nM. The inhibition constant (Ki) in assay [2] (setting [4]) amounted to 1.13 nM.

Molecule `CC1(C)C[C@](F)(C(=O)N[C@@H]2CC[C@@H](Oc3ccc(C(C)(C)C(=O)NS(=O)(=O)N4CCC4)cc3-c3cccc(F)c3C3CCC3)C2)CN1` (single isomer, unassigned) [Example C8] gave an IC50 in assay [1] (setting [3]) of 142 nM. For the same molecule, in assay [2] (setting [4]), the inhibition constant (Ki) came to 13.6 nM.

`CC(C)S(=O)(=O)NC(=O)Cc1ccc(O[C@@H]2CC[C@@H](NC(=O)[C@@]3(F)CNCC(C)(C)C3)C2)c(-c2cccc(F)c2C2CCC2)c1` (single isomer, unassigned) [Example C76] returned an IC50 in assay [1] (H3K9AC sandwich ELISA) of 485 nM. Also, the Ki in assay [2] (setting [4]) was found to be 46 nM.

For `CC(C)c1ccccc1-c1cc(CC(=O)NS(=O)(=O)C(C)C)ccc1O[C@@H]1CC[C@@H](NC(=O)[C@@]2(F)CNCC(C)(C)C2)C1` (single isomer, unassigned) [Example C75], in assay [1] (H3K9AC sandwich ELISA), 4.5 nM corresponded to half-maximal inhibition (IC50). For the same molecule, the inhibition constant Ki in assay [2] (setting [4]) is 0.17 nM.

Molecule `CCc1c(F)cccc1-c1cc(CC(=O)NS(=O)(=O)C(C)C)ccc1O[C@@H]1CC[C@@H](NC(=O)[C@@]2(F)CNC3(CCCC3)C2)C1` (single isomer, unassigned) [Example C73] displayed an IC50 in assay [1] (H3K9AC sandwich ELISA) of 4.8 nM. Also, the Ki in assay [2] (setting [4]) stood at 0.05 nM.

In turn, `CCc1c(F)cccc1-c1cc(CC(=O)NS(=O)(=O)C(C)C)ccc1O[C@@H]1CC[C@@H](NC(=O)[C@@]2(F)CNC3(CCCC3)C2)C1` (single isomer, unassigned) [Example C72] gave a 50% inhibitory concentration (IC50) in assay [1] (H3K9AC sandwich ELISA) of over 1000 nM. Also, the Ki in assay [2] (setting [4]) came out at 45.4 nM.
